Experimental data published in US11712416B2, “Solid oral pharmaceutical compositions for isoxazoline compounds” (Intervet Inc., priority 2012, dated 2023).
Converted amounts (≈) assume the structure as drawn. Where two headings read alike, the source gives them in different places.

Columns and labels:
[1] = Solubility of the active (fluralaner) in formulation solvents; assay type: physicochemical; conditions: organic solvent or mixture
[2] = Blood plasma pharmacokinetic profile of isoxazoline compounds in two chewable formulations after a single oral administration in dogs (Example 8); assay type: in vivo; conditions: beagle dogs; for Cmax / Tmax / AUC(0-t): dog, plasma; for AUC(0-t): read-out: AUC(0-168h)
From the text: Pharmacokinetic Profile Following Oral Administration of Chewable Formulations of Isoxazoline Compounds
The objective of this study is to compare the blood plasma pharmacokinetic profile of three different isoxazoline compounds in two different chewable formulations after a single oral (PO) administration of in dogs.
The following compounds were formulated according to the invention. Specifically, the isoxazoline compound was first dissolved in a solvent, i.e. 2-pyrrolidone. This drug solution was then adsorbed onto the solid carrier, i.e. microcrystalline cellulose, which was incorporated into a solid oral dosage form as described in the specification with excipients as described in Table 3. Comparative example formulation ID No. 13-009, 13-011 and 13-013 contain the active drug substance incorporated as a solid that was manufactured as described in general in the specification without prior pre-dissolving the active ingredient and adsorption to the solid carrier.
The test compounds were administered orally to four beagle dogs per dose group for a total of twenty-four dogs.
Each animal was administered the tablet or chew by placing it in the back of the oral cavity over the tongue to initiate swallowing.
Plasma was obtained from the collected blood samples and analyzed for concentrations of the test compounds. Individual blood samples (approximately 4.5 mL per sample) were taken via jugular venipuncture into sodium-citrate tubes from all dogs for drug analysis. Blood samples were collected at the following time points: pretreatment (within 2 h prior to dosing) and approximately 1, 2, 4, 6, 8, 24, 48, 72 hours after dosing (15 min). A final blood sample was taken from each dog on Day 7 (2 h after the time of dosing on Day 0).
Pharmacokinetic analysis was performed on the plasma concentration data with the computer program Pharsight WinNonlin Enterprise, Version 4.0.1, or more recent update (Model 200: plasma data, extravascular input).

[3] = single oral dose 10 mg/kg, Alternate Chew (compound dissolved in 2-pyrrolidone)
[4] = single oral dose 25 mg/kg, Control Chew (compound not dissolved)

Work on `Cc1cc(C2=NOC(c3cc(Cl)cc(Cl)c3)(C(F)(F)F)C2)ccc1C(=O)NCC(=O)NCC(F)(F)F` (centres unmarked) [Compound A-1443, 4-[5-(3,5-Dichlorophenyl)-5-trifluoromethyl-4,5-dihydroisoxazol-3-yl]-2-methyl-N-[(2,2,2-trifluoro-ethylcarbamoyl)-methyl]-benzamide] yielded a solubility ([1]; 2-pyrrolidone (2-pyrol), solvent 2-pyrrolidone, read-out: solubility in 2-pyrrolidone (2-pyrol)) of 775 mg/mL (≈ 1390 mM) and a solubility ([1]; dimethylacetamide (DMAC), solvent DMAC, read-out: solubility in dimethylacetamide (DMAC)) of 792 mg/mL (≈ 1420 mM).

`Cc1cc(C2=NOC(c3cc(Cl)cc(Cl)c3)(C(F)(F)F)C2)ccc1C(=O)NC1CSC1` (centres unmarked) [Compound A] showed a Cmax/Dose [2, 3] of 1.71 kg·ng/mL/mg, a Cmax/Dose [2, 4] of 0.768 kg·ng/mL/mg and a Cmax [2, 3] of 17.1 ng/mL. The Cmax [2, 4] was 19.2 ng/mL.

For `O=C(CNC(=O)c1ccc(C2=NOC(c3cc(Cl)cc(C(F)(F)F)c3)(C(F)(F)F)C2)c2ccccc12)NCC(F)(F)F` (centres unmarked) [Compound B], the “AUC(0-168h)/Dose” value [2, 3] was 33416 kg·ng·h/mL/mg, the Cmax/Dose [2, 3] was 321 kg·ng/mL/mg and the “AUC(0-168h)/Dose” value [2, 4] was 16661 kg·ng·h/mL/mg. It also gave a Cmax/Dose [2, 4] of 174 kg·ng/mL/mg, a Cmax [2, 3] of 3210 ng/mL and a Tmax [2, 3] of 15.5 h. The AUC(0-t) [2, 3] was 334 µg·h/mL, the Cmax [2, 4] was 4340 ng/mL and the Tmax [2, 4] was 5 h. For the same compound, the AUC(0-t) [2, 4] was 417 µg·h/mL.

In the case of `Cc1cc(C2=NOC(c3cc(Cl)cc(Cl)c3)(C(F)(F)F)C2)sc1C(=O)NCC(=O)NCC(F)(F)F` (centres unmarked) [Compound C], the “AUC(0-168h)/Dose” value [2, 3] is reported as 32660 kg·ng·h/mL/mg, the Cmax/Dose [2, 3] is reported as 254 kg·ng/mL/mg and the “AUC(0-168h)/Dose” value [2, 4] is reported as 6573 kg·ng·h/mL/mg. It also gave a Cmax/Dose [2, 4] of 63.5 kg·ng/mL/mg, a Cmax [2, 3] of 2540 ng/mL and a Tmax [2, 3] of 15.5 h. The AUC(0-t) [2, 3] was 327 µg·h/mL, the Cmax [2, 4] was 1590 ng/mL and the Tmax [2, 4] was 27.5 h. For the same compound, the AUC(0-t) [2, 4] was 164 µg·h/mL.
